Laboratory results as given in ChEMBL document CHEMBL3112549 (Bioorg Med Chem Lett, 2014).

How the values were obtained:
[1] = target: Vascular endothelial growth factor receptor 2 (Homo sapiens, UniProt P35968); experiment: Inhibition of VEGFR-2 tyrosine kinase (unknown origin) after 30 mins by HTRF method
[2] = target: Mast/stem cell growth factor receptor Kit (Homo sapiens, UniProt P10721); experiment: Inhibition of c-KIT tyrosine kinase (unknown origin) after 30 mins by HTRF method
Chain of Mast/stem cell growth factor receptor Kit (P10721 whole entry): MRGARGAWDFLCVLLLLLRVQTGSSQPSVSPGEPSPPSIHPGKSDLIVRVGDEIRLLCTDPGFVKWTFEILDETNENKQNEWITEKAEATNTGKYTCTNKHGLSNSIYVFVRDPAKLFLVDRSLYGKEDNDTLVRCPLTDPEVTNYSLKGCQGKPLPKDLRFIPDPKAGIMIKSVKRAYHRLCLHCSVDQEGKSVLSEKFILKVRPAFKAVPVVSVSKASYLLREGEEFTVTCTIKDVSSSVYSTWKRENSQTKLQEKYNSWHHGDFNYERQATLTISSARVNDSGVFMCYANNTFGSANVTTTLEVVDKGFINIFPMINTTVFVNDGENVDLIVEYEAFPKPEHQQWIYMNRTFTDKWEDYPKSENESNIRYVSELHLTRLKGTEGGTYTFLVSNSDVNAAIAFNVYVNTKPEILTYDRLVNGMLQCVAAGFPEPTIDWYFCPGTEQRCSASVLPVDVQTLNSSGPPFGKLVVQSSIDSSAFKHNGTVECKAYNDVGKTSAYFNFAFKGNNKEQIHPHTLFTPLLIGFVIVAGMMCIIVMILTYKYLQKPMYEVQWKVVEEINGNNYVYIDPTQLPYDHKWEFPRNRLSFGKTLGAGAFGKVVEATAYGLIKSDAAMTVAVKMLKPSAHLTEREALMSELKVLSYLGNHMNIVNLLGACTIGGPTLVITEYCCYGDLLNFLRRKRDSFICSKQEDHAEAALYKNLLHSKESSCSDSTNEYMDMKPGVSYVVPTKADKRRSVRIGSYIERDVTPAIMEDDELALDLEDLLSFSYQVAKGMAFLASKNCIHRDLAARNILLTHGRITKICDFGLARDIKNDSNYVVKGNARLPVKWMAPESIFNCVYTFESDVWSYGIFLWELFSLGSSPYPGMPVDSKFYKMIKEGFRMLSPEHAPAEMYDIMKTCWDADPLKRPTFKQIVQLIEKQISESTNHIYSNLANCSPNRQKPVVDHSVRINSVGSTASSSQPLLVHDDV

Chain of Vascular endothelial growth factor receptor 2 (P35968 whole entry): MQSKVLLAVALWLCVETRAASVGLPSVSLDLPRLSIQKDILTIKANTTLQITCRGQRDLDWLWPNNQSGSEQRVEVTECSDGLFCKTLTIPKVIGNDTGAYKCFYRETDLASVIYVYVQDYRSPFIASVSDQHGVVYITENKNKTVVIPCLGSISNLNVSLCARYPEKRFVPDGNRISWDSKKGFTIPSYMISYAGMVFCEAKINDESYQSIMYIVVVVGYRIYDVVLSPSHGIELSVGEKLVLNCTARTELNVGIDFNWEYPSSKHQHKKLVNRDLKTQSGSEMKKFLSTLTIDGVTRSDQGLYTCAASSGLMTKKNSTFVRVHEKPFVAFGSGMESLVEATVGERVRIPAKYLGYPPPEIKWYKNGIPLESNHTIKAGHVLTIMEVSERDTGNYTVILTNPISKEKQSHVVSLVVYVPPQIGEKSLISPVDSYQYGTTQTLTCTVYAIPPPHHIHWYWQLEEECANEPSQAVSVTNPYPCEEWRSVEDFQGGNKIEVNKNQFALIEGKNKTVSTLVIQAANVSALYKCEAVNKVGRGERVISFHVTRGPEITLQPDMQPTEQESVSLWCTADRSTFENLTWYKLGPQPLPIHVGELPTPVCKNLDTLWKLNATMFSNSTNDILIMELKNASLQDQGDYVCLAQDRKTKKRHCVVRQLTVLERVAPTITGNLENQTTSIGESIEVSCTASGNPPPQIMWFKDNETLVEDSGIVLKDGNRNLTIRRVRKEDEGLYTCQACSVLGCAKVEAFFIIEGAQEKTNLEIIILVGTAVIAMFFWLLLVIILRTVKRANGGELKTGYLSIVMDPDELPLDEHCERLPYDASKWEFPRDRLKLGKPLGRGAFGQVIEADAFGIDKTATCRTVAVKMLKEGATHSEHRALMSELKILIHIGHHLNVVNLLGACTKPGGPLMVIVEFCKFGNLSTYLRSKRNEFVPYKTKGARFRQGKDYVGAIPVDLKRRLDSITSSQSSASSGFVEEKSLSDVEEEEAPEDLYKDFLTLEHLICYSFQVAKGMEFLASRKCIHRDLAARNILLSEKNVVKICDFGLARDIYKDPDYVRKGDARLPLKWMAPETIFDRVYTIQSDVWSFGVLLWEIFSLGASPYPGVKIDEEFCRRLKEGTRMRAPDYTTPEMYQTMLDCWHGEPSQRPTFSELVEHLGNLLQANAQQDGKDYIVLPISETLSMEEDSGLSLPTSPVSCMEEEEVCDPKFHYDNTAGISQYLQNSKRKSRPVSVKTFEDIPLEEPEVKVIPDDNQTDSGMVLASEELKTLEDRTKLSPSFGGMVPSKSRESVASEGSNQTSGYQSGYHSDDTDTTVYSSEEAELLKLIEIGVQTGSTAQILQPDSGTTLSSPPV

| IC50 [1] [µM] | IC50 [2] [µM] | SMILES |
| --- | --- | --- |
| 0.078 | 0.102 | Cc1c2ccc(N(C)c3ccnc(Nc4cccc(F)c4)n3)cc2nn1C |
| 0.064 | 0.098 | Cc1c2ccc(N(C)c3ccnc(Nc4cccc(Br)c4)n3)cc2nn1C |
| 0.025 | 0.08 | Cc1c2ccc(N(C)c3ccnc(Nc4cccc(Cl)c4)n3)cc2nn1C |
| 0.038 | 0.072 | COc1cccc(Nc2nccc(N(C)c3ccc4c(C)n(C)nc4c3)n2)c1 |
| 0.042 | 0.087 | Cc1cccc(Nc2nccc(N(C)c3ccc4c(C)n(C)nc4c3)n2)c1 |
| 0.021 | 0.04 | Cc1cc(C)cc(Nc2nccc(N(C)c3ccc4c(C)n(C)nc4c3)n2)c1 |
| 0.051 | 0.071 | CSc1ccc(Nc2nccc(N(C)c3ccc4c(C)n(C)nc4c3)n2)cc1 |
| 0.072 | 0.089 | Cc1c2ccc(N(C)c3ccnc(Nc4ccc(OC(F)(F)F)cc4)n3)cc2nn1C |
| 0.093 | 0.096 | CN(c1ccc2cn(C)nc2c1)c1ccnc(Nc2cccc(F)c2)n1 |
| 0.072 | 0.072 | CN(c1ccc2cn(C)nc2c1)c1ccnc(Nc2cccc(Cl)c2)n1 |
| 0.108 | 0.077 | COc1cccc(Nc2nccc(N(C)c3ccc4cn(C)nc4c3)n2)c1 |
| 0.012 | 0.083 | CN(c1ccc2cn(C)nc2c1)c1ccnc(Nc2ccc(OC(F)(F)F)cc2)n1 |
| 0.028 | 0.061 | Cc1cc(C)cc(Nc2nccc(N(C)c3ccc4cn(C)nc4c3)n2)c1 |
